This assay has as its system Aedes albopictus. In words: Evaluation of the repellent and/or attractant effect in a tunnel olfactometer. It counts as in vivo. The conditions noted are these: for Repulsion index 5 mg deposition / Repulsion index 10 mg deposition / Repulsion index 30 mg deposition / KI (%) kairomone index / RI (%) repulsion index: negative = attractant; for Control (±SD), mean number of mosquitoes in the control zone / Treated/Product (±SD), mean number of mosquitoes in the treated zone / Treated (±SD), mean number of mosquitoes in the treated zone: 15 females; for repellent or attractant effect (in words): over the doses tested; for repellent effect compared with Picaridin and DEET (in words): equivalent/identical doses (10 and 30 mg/ml). The source says:
The tunnel olfactometer is a 1 m long glass parallelepiped with a 5×5 cm side. The tube is equipped with 3 openings: two on each side, one for feeding in the paper impregnated with the product to be tested, and the other for the paper containing a control. The opening in the middle is for feeding in mosquitoes. Both ends of the tube are closed by covers.
The olfactometer is divided into three compartments or zones: • a neutral zone in the middle; • a test or treated area which is on the side of depositing the product; and • a control area which is located on the side of depositing the control.
For each test, 15 Aedes albopictus females (aged 5 to 12 days) are fed into the neutral zone of the tunnel olfactometer. Mosquitoes are kept for 10 minutes for a time of adaptation. Papers impregnated and dried with a solution of product in ethanol and pure ethanol as a reference are fed in, then the barriers are opened to allow mosquitoes to circulate freely inside the tube. Three test repetitions were carried out for each product. A repetition lasts 20 minutes and the results observed were recorded every 5 minutes.
The values measured are the activity index and the repulsion index. The activity index (Al) describes the percentage of mosquitoes in the control zone (T) and in the treated zone (P) with respect to the total number of mosquitoes tested. Said value should be greater than 30% for the test to be considered significant.
The repulsion index (RI) represents the percentage of the difference in the number of mosquitoes in the control part and in the treated part divided by the sum of the two values. A negative value of the parameter (RI) indicates an attractant activity (kairomone index. KI) of the product tested.
[formula] • Al: Activity index • RI: Repulsion index • T: Number of mosquitoes in the control area • P: Number of mosquitoes in the treated area

Consider `CCC(C)OC(=O)N1CCCCC1CCO` (stereo not shown) [Picaridin, reference compound], for which the “Repulsion index 5 mg deposition” value is reported as 42.6%, the “Repulsion index 10 mg deposition” value is 49.6% and the “Repulsion index 30 mg deposition” value turned out to be 59.7%.
Regarding `CCCCCCCCCCOc1ccc2c(=O)ccoc2c1` [7-n-decyloxychromone], where the note is “dose 10 mg/ml”, the “AI (%) activity index” value is recorded as 85%; the “Treated/Product (±SD), mean number of mosquitoes in the treated zone” value (from here on “Treated/Product (±SD), mean number”) turned out to be 8.8 ± 0.9; the “KI (%) kairomone index” value was −37.8 ± 5.2%. Moreover, the “Control (±SD), mean number of mosquitoes in the control zone” value (“Control (±SD), mean number of mosquitoes” below) (dose 10 mg/ml in treated zone) was 3.9 ± 0.3. Moreover, the “attractant effect compared with a reference attractant (in words)” value (same doses) is on record as “attractant effect equivalent to that of 7-sec-nonyloxychromone”.
With `CCCC(C)Oc1ccc2c(=O)ccoc2c1` (racemic) [7-sec-pentoxychromone], the “Repulsion index 5 mg deposition” value was −59.2%, the “Repulsion index 10 mg deposition” value was −47.8%, the “Repulsion index 30 mg deposition” value is listed as −28.7% and the “repellent or attractant effect (in words)” value is “attractant”. For the setting “dose 1 mg/ml”, the “AI (%) activity index” value amounted to 85%; the “Treated (±SD), mean number of mosquitoes in the treated zone” value (from here on “Treated (±SD), mean number of mosquitoes”) is recorded as 9.3 ± 0.7; the “KI (%) kairomone index” value was −45.6%. Also, the “Control (±SD), mean number of mosquitoes” value (dose 1 mg/ml in treated zone) is 3.5 ± 0.5. Also, under “dose 5 mg/ml”, the “AI (%) activity index” value amounted to 80.1%; the “Treated/Product (±SD), mean number” value came to 9.5 ± 0.2; the “KI (%) kairomone index” value is −59.2%. The “Control (±SD), mean number of mosquitoes” value (dose 5 mg/ml in treated zone) was found to be 2.5 ± 0.3. In addition, for the setting “dose 10 mg/ml”, the “AI (%) activity index” value is listed as 88.3%; the “Treated/Product (±SD), mean number” value is 9.8 ± 1.1; the “KI (%) kairomone index” value is listed as −47.9%. Besides, the “Control (±SD), mean number of mosquitoes” value (dose 10 mg/ml in treated zone) turned out to be 3.4 ± 0.4. Further, for the setting “dose 30 mg/ml”, the “AI (%) activity index” value was determined as 90%; the “Treated/Product (±SD), mean number” value worked out at 8.7 ± 0.4; the “KI (%) kairomone index” value is −28.6%. Also, the “Control (±SD), mean number of mosquitoes” value (dose 30 mg/ml in treated zone) was 4.8 ± 0.4.
`CCN(CC)C(=O)c1cccc(C)c1` [DEET, reference compound]: the “Repulsion index 5 mg deposition” value is recorded as 55.5%, the “Repulsion index 10 mg deposition” value is 60.4% and the “Repulsion index 30 mg deposition” value amounted to 59.1%.
Take `CCC[C@H](C)Oc1ccc2c(=O)ccoc2c1` [S-(+)-sec-pentoxychromone]: the “repellent or attractant effect (in words)” value was “attractant”. Besides, where the note is “dose 1 mg/ml”, the “AI (%) activity index” value turned out to be 93.3%; the “Treated (±SD), mean number of mosquitoes” value is 10.3 ± 0.7; the “KI (%) kairomone index” value is −46.3%. Also, where the note is “dose 1 mg/ml in treated zone”, the “Control (±SD), mean number of mosquitoes” value turned out to be 3.8 ± 0.3. Under “dose 5 mg/ml”, the “AI (%) activity index” value came to 83.9%; the “Treated/Product (±SD), mean number” value is given as 9.5 ± 0.7; the “KI (%) kairomone index” value is recorded as −52.4%. Besides, the “Control (±SD), mean number of mosquitoes” value (dose 5 mg/ml in treated zone) is 3.1 ± 1.2. Also, for the setting “dose 10 mg/ml”, the “AI (%) activity index” value was 95%; the “Treated/Product (±SD), mean number” value is given as 8.4 ± 0.1; the “KI (%) kairomone index” value is given as −18.2%. For the same compound, the “Control (±SD), mean number of mosquitoes” value (dose 10 mg/ml in treated zone) is recorded as 5.8 ± 0.2. For the same compound, where the note is “dose 30 mg/ml”, the “AI (%) activity index” value came to 77.8%; the “Treated/Product (±SD), mean number” value is on record as 6.5 ± 0.7; the “KI (%) kairomone index” value was −10.7%. The “Control (±SD), mean number of mosquitoes” value (dose 30 mg/ml in treated zone) amounted to 5.2 ± 0.3.
On to `CC[C@H](C)Oc1ccc2c(=O)ccoc2c1` [S-(+)-sec-butoxychromone], for which the “repellent or attractant effect (in words)” value was “attractant at low doses and repellent at high doses”. Moreover, for the setting “dose 5 mg/ml”, the “AI (%) activity index” value turned out to be 91.7%; the “Treated/Product (±SD), mean number” value worked out at 9.0 ± 0.2; the “RI (%) repulsion index” value is −31.2%. Besides, the “Control (±SD), mean number of mosquitoes” value (dose 5 mg/ml in treated zone) is recorded as 4.8 ± 0.5. Besides, where the note is “dose 10 mg/ml”, the “AI (%) activity index” value is 87.2%; the “Treated/Product (±SD), mean number” value is listed as 8.9 ± 1.1; the “RI (%) repulsion index” value is −35.8%. Under “dose 10 mg/ml in treated zone”, the “Control (±SD), mean number of mosquitoes” value stood at 4.2 ± 0.9. Moreover, where the note is “dose 30 mg/ml”, the “AI (%) activity index” value came to 83.3%; the “Treated/Product (±SD), mean number” value stood at 3.3 ± 0.2; the “RI (%) repulsion index” value worked out at 47.9%. Also, the “Control (±SD), mean number of mosquitoes” value (dose 30 mg/ml in treated zone) is 9.3 ± 0.8. Besides, for the setting “dose 60 mg/ml”, the “AI (%) activity index” value is given as 89.4%; the “Treated/Product (±SD), mean number” value was determined as 2.0 ± 0.0; the “RI (%) repulsion index” value came to 70.5%. Further, the “Control (±SD), mean number of mosquitoes” value (dose 60 mg/ml in treated zone) came to 11.4 ± 0.8.
As to `C=CC(O)CCCCC` (stereo not shown) [Octen-3-ol, octen-3-ol, reference compound], the “Repulsion index 5 mg deposition” value was −41.7%, the “Repulsion index 10 mg deposition” value is −54.7% and the “Repulsion index 30 mg deposition” value is recorded as −61.6%.
R-(−)-sec-butoxychromone: the “Repulsion index 5 mg deposition” value is on record as 51%, the “Repulsion index 10 mg deposition” value stood at 65.6%, the “Repulsion index 30 mg deposition” value was 79.5% and the “repellent or attractant effect (in words)” value was “repellent at any dose”. For the setting “dose 5 mg/ml”, the “AI (%) activity index” value was 84%; the “Treated/Product (±SD), mean number” value is listed as 3.1 ± 0.1; the “RI (%) repulsion index” value amounted to 51.3%. Also, where the note is “dose 5 mg/ml in treated zone”, the “Control (±SD), mean number of mosquitoes” value amounted to 9.5 ± 0.3. In addition, for the setting “dose 10 mg/ml”, the “AI (%) activity index” value worked out at 88.9%; the “Treated/Product (±SD), mean number” value was 2.3 ± 0.7; the “RI (%) repulsion index” value worked out at 65.6%. Further, the “Control (±SD), mean number of mosquitoes” value (dose 10 mg/ml in treated zone) is 11 ± 0.3. For the setting “dose 30 mg/ml”, the “AI (%) activity index” value was 92.2%; the “Treated/Product (±SD), mean number” value is 1.4 ± 0.1; the “RI (%) repulsion index” value was 79.5%. Besides, the “Control (±SD), mean number of mosquitoes” value (dose 30 mg/ml in treated zone) amounted to 12.4 ± 0.1. Moreover, for the setting “dose 60 mg/ml”, the “AI (%) activity index” value was found to be 92%; the “Treated/Product (±SD), mean number” value is reported as 1.6 ± 0.2; the “RI (%) repulsion index” value is 76.6%. Where the note is “dose 60 mg/ml in treated zone”, the “Control (±SD), mean number of mosquitoes” value turned out to be 12.2 ± 0.1. In addition, the “repellent effect compared with Picaridin and DEET (in words)” value (listed as (R) 7-sec-butoxychromone) is “as effective and more effective than Picaridin and DEET”. Also, the “repellent effect compared with Picaridin and DEET (in words)” value (listed as enantiomer R) is “as significant as DEET and picaridin”.
Regarding R-(−)-sec-pentoxychromone, the “repellent or attractant effect (in words)” value is given as “attractant”. For the same compound, for the setting “dose 1 mg/ml”, the “AI (%) activity index” value was 92.2%; the “Treated (±SD), mean number of mosquitoes” value was 8.6 ± 0.2; the “KI (%) kairomone index” value is on record as −24.3%. For the same compound, for the setting “dose 1 mg/ml in treated zone”, the “Control (±SD), mean number of mosquitoes” value turned out to be 5.3 ± 0.3. For the same compound, under “dose 5 mg/ml”, the “AI (%) activity index” value is 86.7%; the “Treated/Product (±SD), mean number” value came to 10.8 ± 0.6; the “KI (%) kairomone index” value was −66.6%. Besides, the “Control (±SD), mean number of mosquitoes” value (dose 5 mg/ml in treated zone) is recorded as 2.2 ± 0.4. Also, under “dose 10 mg/ml”, the “AI (%) activity index” value is given as 81.1%; the “Treated/Product (±SD), mean number” value came to 8.6 ± 0.1; the “KI (%) kairomone index” value is −47.1%. Further, the “Control (±SD), mean number of mosquitoes” value (dose 10 mg/ml in treated zone) was found to be 3.6 ± 0.4. For the same compound, where the note is “dose 30 mg/ml”, the “AI (%) activity index” value was 90%; the “Treated/Product (±SD), mean number” value was 6.9 ± 0.3; the “KI (%) kairomone index” value is recorded as −2.8%. Besides, the “Control (±SD), mean number of mosquitoes” value (dose 30 mg/ml in treated zone) turned out to be 6.6 ± 0.4.
Turning to `CCC(C)Oc1ccc2c(=O)ccoc2c1` (racemic) [7-sec-butoxychromone], the “repellent or attractant effect (in words)” value is listed as “repellent at any dose”. Besides, where the note is “dose 5 mg/ml”, the “AI (%) activity index” value is given as 71.1%; the “Treated/Product (±SD), mean number” value is reported as 3.3 ± 0.1; the “RI (%) repulsion index” value stood at 37.6%. In addition, the “Control (±SD), mean number of mosquitoes” value (dose 5 mg/ml in treated zone) is recorded as 7.3 ± 0.4. For the setting “dose 10 mg/ml”, the “AI (%) activity index” value came to 71.8%; the “Treated/Product (±SD), mean number” value came to 3.6 ± 0.4; the “RI (%) repulsion index” value stood at 37.9%. For the setting “dose 10 mg/ml in treated zone”, the “Control (±SD), mean number of mosquitoes” value is 7.2 ± 0.9. For the same compound, under “dose 30 mg/ml”, the “AI (%) activity index” value is recorded as 78%; the “Treated/Product (±SD), mean number” value amounted to 3.4 ± 0.9; the “RI (%) repulsion index” value worked out at 56.1%. For the same compound, the “Control (±SD), mean number of mosquitoes” value (dose 30 mg/ml in treated zone) came to 8.3 ± 0.5. Besides, for the setting “dose 60 mg/ml”, the “AI (%) activity index” value was 90.6%; the “Treated/Product (±SD), mean number” value stood at 1.8 ± 0.2; the “RI (%) repulsion index” value was 72.9%. Further, under “dose 60 mg/ml in treated zone”, the “Control (±SD), mean number of mosquitoes” value turned out to be 11.8 ± 0.7.
